Where “and” joins values, the source holds several entries; their conditions need not be identical. Equal values may be shown once. Entries after “also recorded” stand apart in the source; their conditions may differ. Read-outs that look alike come from different tables or passages of the source.
Test: Plasma kinetics in rat following intravenous and oral administration
Format: in vivo, Sprague Dawley rats
Settings: male rats; for concentration at 24 h: iv; for MRT: read-out: MRT
Description: This study determined the intravenous pharmacokinetics and oral bioavailability of compound 1 of the invention (see FIG. 1A, structure no. 1), compound 2 of the invention (see FIG. 1D, structure no. 19) and compound 3 of the invention (see FIG. 1I, structure no. 53) following administration to Sprague Dawley rats at a dose level of 10 mg/kg.
Six groups of 3 male rats received either a single intravenous or single oral administration of compound 1, 2 or 3 of the invention at a dose level of 10 mg/kg. Blood samples were obtained at various times after dosing. Plasma samples were analysed for unchanged test item using a suitable LC-MS/MS method. Pharmacokinetic parameters were estimated from individual plasma concentrations.
Eighteen male rats each received either a single intravenous or a single oral administration of either compound 1, 2 or 3 at a dose level of 10 mg/kg. The formulation was orally administered to each animal by gastric gavage and intravenously administered to each animal via a tail vein. The dose was administered at a dose volume of 5 mL/kg. The formulations were administered to each animal according to the details in the following table:
Blood samples (ca 0.3 mL) were removed from the femoral vein of each animal into tubes containing lithium heparin as anticoagulant.
Blood samples were collected from 3 rats at the following times after dose administration: • 3, 6, 15, 45 min and 1.5, 2.5, 4, 6, 8, 24 h post dose. Oral Administration
Blood samples were collected from 3 rats at the following times after dose administration: • 5, 15, 45 min and 1.5, 2.5, 4, 6, 8, 24 h post dose. Processing of Blood Samples
Pharmacokinetic parameters of compound 1, 2 and 3 were derived by non-compartmental analysis using WinNonLin Pro version 5.0.1 (Pharsight 2005). The following parameters were derived, where appropriate, from the individual plasma concentration versus time profiles:
• F % The absolute oral bioavailability calculated as [AUC0-t (oral)*Dose(iv)/AUC0-t (iv)*Dose (oral)]*100 based on mean values derived after oral and intravenous administration Consideration was given to the estimation of λz and corresponding t1/2 values. Three or more points are required within the terminal phase for λz and t1/2 to be estimated. The following additional variables were tabulated to aid identification of potentially unreliable estimates of t1/2 and AUC:
Pharmacokinetic parameters were reported as geometric mean except Tmax which was reported as the median. Geometric coefficient of variation was calculated as: […]
Actual sampling times were used for all calculations of pharmacokinetic parameters. Plasma concentrations that were below the limit of quantification were taken as zero for the pharmacokinetic analysis.

[1] = male, Sprague Dawley, rat, plasma, po, 10 mg/kg, oral 10 mg/kg, individual animals
[2] = oral 10 mg/kg, individual animals, acetate, 10 mg/kg

concentration at 24 h (male, Sprague Dawley, rat, plasma, 10 mg/kg, single intravenous 10 mg/kg, 24 h, individual animals, LLOQ 2.50, read-out: Sample Concentration in plasma): 3.95 ng/mL
concentration at 24 h (male, Sprague Dawley, rat, plasma, 10 mg/kg, single intravenous 10 mg/kg, 24 h, mean, read-out: Mean Concentration in plasma): 3.95 ng/mL
AUC(0-t) (male, Sprague Dawley, rat, plasma, po, 10 mg/kg, oral 10 mg/kg, Arithmetic Mean, read-out: AUC0-t): 67.4 ng·h/mL
Cmax (male, Sprague Dawley, rat, plasma, po, 10 mg/kg, oral 10 mg/kg, Arithmetic Mean, read-out: Cmax): 31.2 ng/mL
Tmax (male, Sprague Dawley, rat, plasma, po, 10 mg/kg, oral 10 mg/kg, Arithmetic Mean, read-out: tmax): 1.75 h
AUC(0-t) (male, Sprague Dawley, rat, plasma, po, 10 mg/kg, oral 10 mg/kg, Geometric mean, read-out: AUC0-t): 66.1 ng·h/mL
Cmax (male, Sprague Dawley, rat, plasma, po, 10 mg/kg, oral 10 mg/kg, Geometric mean, read-out: Cmax): 26.3 ng/mL
MRT (male, Sprague Dawley, rat, plasma, po, 10 mg/kg, oral 10 mg/kg, Geometric mean): 3.06 h
half-life (male, Sprague Dawley, rat, plasma, po, 10 mg/kg, oral 10 mg/kg, Geometric mean, read-out: t1/2 (converted)): 2.25 h
Tmax (male, Sprague Dawley, rat, plasma, po, 10 mg/kg, oral 10 mg/kg, Geometric mean, read-out: tmax): 1.16 h
AUC(0-t) (male, Sprague Dawley, rat, plasma, po, 10 mg/kg, oral 10 mg/kg, Median, read-out: AUC0-t): 62.6 ng·h/mL
Cmax (male, Sprague Dawley, rat, plasma, po, 10 mg/kg, oral 10 mg/kg, Median, read-out: Cmax): 18.8 ng/mL
Tmax (male, Sprague Dawley, rat, plasma, po, 10 mg/kg, oral 10 mg/kg, Median, read-out: tmax): 2.5 h
AUC(0-inf) [1]: 102 ng·h/mL
AUC(0-t) (male, Sprague Dawley, rat, plasma, po, 10 mg/kg, oral 10 mg/kg, individual animals, read-out: AUC0-t): 85.6 ng·h/mL
MRT [1]: 3.06 h
half-life (male, Sprague Dawley, rat, plasma, po, 10 mg/kg, oral 10 mg/kg, individual animals, read-out: t1/2 (converted)): 2.25 h
Tmax (male, Sprague Dawley, rat, plasma, po, 10 mg/kg, oral 10 mg/kg, from mean plasma concentrations, read-out: time post dose at which maximum plasma concentration was observed (tmax)): 2.5 h
half-life (male, Sprague Dawley, rat, plasma, po, 10 mg/kg, oral 10 mg/kg, read-out: apparent terminal half-life (converted)): 2.25 h
concentration at 0.05 h (male, Sprague Dawley, rat, plasma, po, 10 mg/kg, single oral 10 mg/kg, 0.05 h, individual animals, LLOQ 2.50, read-out: Sample Concentration in plasma): 4.68 ng/mL
concentration at 0.05 h (male, Sprague Dawley, rat, plasma, po, 10 mg/kg, single oral 10 mg/kg, 0.05 h, mean, read-out: Mean Concentration in plasma): 4.68 ng/mL
concentration at 0.25 h (male, Sprague Dawley, rat, plasma, po, 10 mg/kg, single oral 10 mg/kg, 0.25 h, mean of 3, read-out: Mean Concentration in plasma): 25.5 ng/mL
concentration at 0.75 h (male, Sprague Dawley, rat, plasma, po, 10 mg/kg, single oral 10 mg/kg, 0.75 h, mean of 3, read-out: Mean Concentration in plasma): 13.9 ng/mL
concentration at 1.5 h (male, Sprague Dawley, rat, plasma, po, 10 mg/kg, single oral 10 mg/kg, 1.5 h, individual animals, read-out: Sample Concentration in plasma): 9.56 ng/mL
concentration at 1.5 h (male, Sprague Dawley, rat, plasma, po, 10 mg/kg, single oral 10 mg/kg, 1.5 h, mean of 3, read-out: Mean Concentration in plasma): 12.3 ng/mL
concentration at 2.5 h (male, Sprague Dawley, rat, plasma, po, 10 mg/kg, single oral 10 mg/kg, 2.5 h, individual animals, read-out: Sample Concentration in plasma): 16.5 ng/mL
concentration at 2.5 h (male, Sprague Dawley, rat, plasma, po, 10 mg/kg, single oral 10 mg/kg, 2.5 h, mean of 3, read-out: Mean Concentration in plasma): 17.1 ng/mL
concentration at 4 h (male, Sprague Dawley, rat, plasma, po, 10 mg/kg, single oral 10 mg/kg, 4 h, mean of 3, read-out: Mean Concentration in plasma): 7.91 ng/mL
concentration at 6 h (male, Sprague Dawley, rat, plasma, po, 10 mg/kg, single oral 10 mg/kg, 6 h, individual animals, read-out: Sample Concentration in plasma): 2.76 ng/mL
concentration at 6 h (male, Sprague Dawley, rat, plasma, po, 10 mg/kg, single oral 10 mg/kg, 6 h, mean of 3, read-out: Mean Concentration in plasma): 3.81 ng/mL
MAT (oral 10 mg/kg, individual animals): -0.465 h
AUC(0-t) [2]: 62.6 ng·h/mL and 54.0 ng·h/mL
Cmax [2]: 58.4 ng/mL and 16.5 ng/mL
Tmax [2]: 0.250 h
maximum observed plasma concentration, mean value (oral 10 mg/kg, at tmax): 17.1 ng/mL
Sample Concentration in plasma (single intravenous 10 mg/kg, 0.05 h, individual animals, acetate, 10 mg/kg): 2270 ng/mL and 3150 ng/mL
Sample Concentration in plasma (single intravenous 10 mg/kg, 0.1 h, individual animals, acetate, 10 mg/kg): 1020 ng/mL and 1410 ng/mL
Sample Concentration in plasma (single intravenous 10 mg/kg, 0.25 h, individual animals, acetate, 10 mg/kg): 612 ng/mL and 712 ng/mL
Sample Concentration in plasma (single intravenous 10 mg/kg, 0.75 h, individual animals, acetate, 10 mg/kg): 237 ng/mL and 334 ng/mL
Sample Concentration in plasma (single intravenous 10 mg/kg, 1.5 h, individual animals, acetate, 10 mg/kg): 232 ng/mL and 168 ng/mL
Sample Concentration in plasma (single intravenous 10 mg/kg, 2.5 h, individual animals, acetate, 10 mg/kg): 183 ng/mL and 194 ng/mL
Sample Concentration in plasma (single intravenous 10 mg/kg, 4 h, individual animals, acetate, 10 mg/kg): 158 ng/mL and 115 ng/mL
Sample Concentration in plasma (single intravenous 10 mg/kg, 6 h, individual animals, acetate, 10 mg/kg): 116 ng/mL and 58.1 ng/mL
Sample Concentration in plasma (single intravenous 10 mg/kg, 8 h, individual animals, LLOQ 2.50, acetate, 10 mg/kg): 42.7 ng/mL and 98.4 ng/mL and 54.1 ng/mL
Sample Concentration in plasma (single intravenous 10 mg/kg, 24 h, individual animals, LLOQ 2.50, acetate, 10 mg/kg): <LLOQ
Sample Concentration in plasma (single oral 10 mg/kg, 0.05 h, individual animals, LLOQ 2.50, acetate, 10 mg/kg): <LLOQ
Sample Concentration in plasma (single oral 10 mg/kg, 0.75 h, individual animals, acetate, 10 mg/kg): 9.02 ng/mL and 10.4 ng/mL and 22.4 ng/mL
Sample Concentration in plasma (single oral 10 mg/kg, 1.5 h, individual animals, acetate, 10 mg/kg): 9.84 ng/mL and 17.4 ng/mL
Sample Concentration in plasma (single oral 10 mg/kg, 2.5 h, individual animals, acetate, 10 mg/kg): 18.8 ng/mL and 16.1 ng/mL
Sample Concentration in plasma (single oral 10 mg/kg, 4 h, individual animals, acetate, 10 mg/kg): 12.6 ng/mL and 4.79 ng/mL and 6.35 ng/mL
Sample Concentration in plasma (single oral 10 mg/kg, 6 h, individual animals, acetate, 10 mg/kg): 3.74 ng/mL and 4.94 ng/mL
Sample Concentration in plasma (single oral 10 mg/kg, 8 h, individual animals, LLOQ 2.50): <LLOQ
Mean Concentration in plasma (single oral 10 mg/kg, 8 h, mean, LLOQ 2.50): <LLOQ
Sample Concentration in plasma (single oral 10 mg/kg, 24 h, individual animals, LLOQ 2.50): <LLOQ
Mean Concentration in plasma (single oral 10 mg/kg, 24 h, mean, LLOQ 2.50): <LLOQ
SMILES: N=C(N)NN=CC=Cc1cccn1-c1ccccc1[N+](=O)[O-] [Compound 2, [1-(2-nitrophenyl)-1H-pyrrol-2-yl-allylideneamino]guanidinium acetate]
adverse effects (single intravenous or oral administration, 10 mg/kg, acetate): No adverse effects; also recorded: No adverse affects
Sample Concentration in plasma (single oral 10 mg/kg, 0.25 h, individual animals, acetate, 10 mg/kg): 9.11 ng/mL and 9.01 ng/mL and 58.4* ng/mL
